Patent publication US20240374769A1, “LIGHT ACTIVATED CLEANING COMPOSITION” (The Procter & Gamble Company, priority 2023, published 2024)

Experiments:
[1] = Riboflavin 5-phosphate sodium salt degradation under 450 nm LED with or without sodium ascorbate; assay type: physicochemical
Experimental: Stock solutions of Riboflavin5-phosphate sodium salt were created by adding 2.2 mg of granulated Riboflavin 5-phosphate sodium salt Riboflavin 5-phosphate sodium salt into a 10 mL volumetric flask with a 95% H2O: 5% ethanol to give a concentration of 0.46 mM. Adding 1 mL of the stock solution to another 10 mL was used to create a 46 μM solution. Adding 0.5 mL to a 25 mL volumetric flask gives a concentration of 9 μM.
Stock solutions of sodium ascorbate were created by adding 9.1 mg of granulated sodium ascorbate into a 10 mL volumetric flask with a 95% H2O: 5% ethanol to give a concentration of 4.6 mM. Adding 0.1 mL of the stock solution to another 10 mL was used to create a 46 μM solution. Adding 0.05 mL to a 25 mL volumetric flask gives a concentration of −9 μM, which could be multiplied to give the number of equivalents needed for each study.
For some riboflavin decomposition experiments a home-built 450 nm LED was used to irradiate samples. The quartz cuvette was placed 11.5 cm away from the light source and the measured intensity was 1750 mW/m^2.
A JASCO V-750 spectrophotometer (from JASCO Easton, Maryland, USA) was used for recording UV-Vis spectra. Quartz cuvettes were used for sample irradiations as they have an optical window that allows for spectra to be collected as low as 200 nm. IgorPro8 software was used for plotting and processing the data.
Fractional RF Absorbance is the absorbance signal at 446 nm measured at an irradiation time divided by the absorbance signal at 446 nm at t=0. The concentration of RF was held constant at 46 μM, denoted by “1” and the concentration of sodium ascorbate (SA) was varied in multiples of 46 μM, denoted by “1”, “5”, “10”, “50” (i.e. 46 μM, 230 μM, 460 μM, and 2.3 mM).
To test the depletion of Riboflavin 5-phosphate sodium salt (RF) in presence of sodium ascorbate, experiments were run in triplicate using a 450 nm LED with a measured power of 1750 mW/m2. […]

[2] = Thioxanthone depletion in solution under 365 nm irradiation (UV-Vis); assay type: physicochemical
Experimental: Solutions of photosensitizer (9-10 μM, 1 eq), […] (9-50 μM, 1-5 eq) and singlet oxygen quenching molecules (1-1000 equivalents) were prepared in a 10 mL volumetric flask either. Solvents for these studies were either 95:5 DI H2O:Ethanol or pure ethanol. A starting UV-Vis spectrum was obtained as a baseline. Solutions were irradiated in a quartz cuvette using appropriate LED's at a measured distance to ensure reproducible results. Spectra were collected at intervals of 1 min, 5 min, 15 minutes, 30 minutes, and every 15 minutes until the […] was depleted. In cases where nitrosoaniline absorption signals were quenched faster, the spectra were collected as smaller intervals typically been 1-5 minutes.
Stock solutions of thioxanthone were created by adding […] of granulated thioxanthone into a 10 mL volumetric flask with pure ethanol to give a concentration of 2.3 mM. Adding 0.1 mL of the stock solution to another 10 mL was used to create a 23 μM solution. Adding 0.1 mL to a 25 mL volumetric flask gives a concentration of −9 μM.
Stock solutions of imidazole were created by adding […] of granulated imidazole into a 10 mL volumetric flask with a 95% H2O: 5% ethanol or pure ethanol to give a concentration of […]. […]
Some thioxanthone decomposition experiments were performed by using a home-built 365 nm LED. […] The light intensity was measured to be roughly 2000 mW/m^2 from each LED. […]

[3] = in methanol solutions; cited from earlier work

For Cc1cc2nc3c(=O)[nH]c(=O)nc-3n(C[C@H](O)[C@H](O)[C@H](O)COP(=O)([O-])O)c2cc1C.[Na+] [Riboflavin 5-phosphate sodium salt], the “loss of absorbance signal at 446 nm” value ([1]; RF 46 μM by itself, 450 nm LED 1750 mW/m2, after 30 minutes of irradiation) was “roughly 50%”, the “loss of absorbance signal at 446 nm” value ([1]; RF 46 μM with 5× sodium ascorbate (230 μM), 450 nm LED, in about 10 minutes) was “roughly 50%” and the “loss of absorbance signal at 446 nm” value ([1]; RF 46 μM with 10× sodium ascorbate (460 μM), 450 nm LED, in about 10 minutes) was “roughly 50%”.

With c1c[nH]cn1 [imidazole] the “effect of added imidazole on rate of thioxanthone degradation” value ([2]; thioxanthone 23 μM, imidazole 23 μM to 230 μM, 365 nm) was “increases the rate of thioxanthone degradation”.

In the case of O=c1c2ccccc2sc2ccccc12 [thioxanthone, reference compound], the triplet quantum yield [3] is listed as 0.56 and the depletion of thioxanthone ([2]; thioxanthone 23 μM in ethanol, 365 nm irradiation) is listed as “complete after two hours of irradiation”.
